From patent publication US9867833B2, “Serine/threonine kinase inhibitors” (GENENTECH, INC., priority 2013, dated 2018)

Molecular target: human ERK-2 (Mitogen Activated Kinase 1) (Homo sapiens (Human), UniProt P28482)
Test: ERK-2 Enzymatic Assay
Format: biochemical
Conditions: human ERK-2 enzyme 5 nM, 25 μM ATP, S/T17 peptide substrate; isomer = configuration of CR2R3
How it was run: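 Recombinant human ERK-2 (aa 8-360, N-terminal 6-His, E. coli) with 3-fold serially diluted compound. Per-well rates from linear fits converted to percent of control; IC50 by four-parameter fit.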

Sequence of human ERK-2 (Mitogen Activated Kinase 1) (P28482 8-360): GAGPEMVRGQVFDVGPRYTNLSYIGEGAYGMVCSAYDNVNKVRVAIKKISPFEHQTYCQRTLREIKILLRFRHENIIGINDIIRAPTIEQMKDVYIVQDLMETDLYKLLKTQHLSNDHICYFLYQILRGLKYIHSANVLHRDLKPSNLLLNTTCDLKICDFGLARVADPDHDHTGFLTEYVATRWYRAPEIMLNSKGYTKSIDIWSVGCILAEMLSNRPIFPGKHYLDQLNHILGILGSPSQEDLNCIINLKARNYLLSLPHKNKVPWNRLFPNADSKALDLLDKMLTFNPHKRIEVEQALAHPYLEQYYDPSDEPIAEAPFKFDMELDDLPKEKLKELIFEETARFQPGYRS

Row | SMILES | IC50 [pM]
1 | CCC[C@@H]1CCOc2cc(-c3ccnc(Nc4ccnn4C)c3)cc3nnc1n23 [(R) I-103, N-(1-methyl-1H-pyrazol-5-yl)-4-(9-propyl-8,9-dihydro-7H-6-oxa-1,2,2a^1-triazabenzo[cd]azulen-4-yl)pyridin-2-amine] | 2770
2 | CC(C)C[C@H]1CN(C)c2cc(-c3ccnc(Nc4ccnn4C)c3)cc3nnc1n23 [(S) I-20, 4-(3-isobutyl-5-methyl-4,5-dihydro-3H-1,2,2a^1,5-tetraazaacenaphthylen-7-yl)-N-(1-methyl-1H-pyrazol-5-yl)pyridin-2-amine] | 316
3 | Cn1nccc1Nc1cc(-c2cc3n4c(nnc4c2)[C@H](Cc2ccc(F)c(F)c2)CO3)ccn1 [(S) I-54, 4-(3-(3,4-difluorobenzyl)-3,4-dihydro-5-oxa-1,2,2a^1-triazaacenaphthylen-7-yl)-N-(1-methyl-1H-pyrazol-5-yl)pyridin-2-amine] | 22300
4 | Cn1nccc1Nc1cc(-c2cc3n4c(nnc4c2)[C@H](Cn2cc(Cl)cn2)CCO3)ccn1 [(S) I-47, 4-(9-((4-chloro-1H-pyrazol-1-yl)methyl)-8,9-dihydro-7H-6-oxa-1,2,2a^1-triazabenzo[cd]azulen-4-yl)-N-(1-methyl-1H-pyrazol-5-yl)pyridin-2-amine] | 465
5 | Cn1nccc1Nc1cc(-c2cc3n4c(nnc4c2)C(Cc2ccccc2Cl)CCO3)ccn1 (single isomer, unassigned) [(R) I-60, 4-(9-(2-chlorobenzyl)-8,9-dihydro-7H-6-oxa-1,2,2a^1-triazabenzo[cd]azulen-4-yl)-N-(1-methyl-1H-pyrazol-5-yl)pyridin-2-amine] | 2550
6 | Cn1nccc1Nc1nccc(-c2cc3n4c(nnc4c2)[C@H](Cc2ccc(Cl)cc2)CN3)n1 [(R) I-5, 4-(3-(4-chlorobenzyl)-4,5-dihydro-3H-1,2,2a^1,5-tetraazaacenaphthylen-7-yl)-N-(1-methyl-1H-pyrazol-5-yl)pyrimidin-2-amine] | 408
7 | Cn1nccc1Nc1nccc(-c2cc3n4c(nnc4c2)[C@H](CCC(F)(F)F)CCO3)n1 [(R) I-102, N-(1-methyl-1H-pyrazol-5-yl)-4-(9-(3,3,3-trifluoropropyl)-8,9-dihydro-7H-6-oxa-1,2,2a^1-triazabenzo[cd]azulen-4-yl)pyrimidin-2-amine] | 1700
8 | Cn1nccc1Nc1nccc(-c2cc3n4c(nnc4c2)[C@H](Cc2ccc(Cl)cc2)CCO3)n1 [(R) I-36, 4-(9-(4-chlorobenzyl)-8,9-dihydro-7H-6-oxa-1,2,2a^1-triazabenzo[cd]azulen-4-yl)-N-(1-methyl-1H-pyrazol-5-yl)pyrimidin-2-amine] | 690
9 | Cn1nccc1Nc1nccc(-c2cc3n4c(nnc4c2)[C@H](Cc2ccc(F)cc2)CN3)n1 [(R) I-21, 4-(3-(4-fluorobenzyl)-4,5-dihydro-3H-1,2,2a^1,5-tetraazaacenaphthylen-7-yl)-N-(1-methyl-1H-pyrazol-5-yl)pyrimidin-2-amine] | 731
10 | Cn1nccc1Nc1nccc(-c2cc3n4c(nnc4c2)[C@H](Cn2cc(Cl)cn2)CCO3)n1 [(S) I-42, (S)-4-(9-((4-Chloro-1H-pyrazol-1-yl)methyl)-8,9-dihydro-7H-6-oxa-1,2,2a^1-triazabenzo[cd]azulen-4-yl)-N-(1-methyl-1H-pyrazol-5-yl)pyrimidin-2-amine] | 131
11 | CN1C(=O)C[C@H](CC(F)(F)F)c2nnc3cc(-c4ccnc(Nc5ccnn5C)n4)cc1n23 [(R) I-71, 6-methyl-4-(2-((1-methyl-1H-pyrazol-5-yl)amino)pyrimidin-4-yl)-9-(2,2,2-trifluoroethyl)-8,9-dihydro-1,2,2a^1,6-tetraazabenzo[cd]azulen-7(6H)-one] | 655
12 | COc1ccc(C[C@H]2COc3cc(-c4ccnc(Nc5ccnn5C)n4)cc4nnc2n34)cc1F [(R) I-46, 4-(3-(3-fluoro-4-methoxybenzyl)-3,4-dihydro-5-oxa-1,2,2a^1-triazaacenaphthylen-7-yl)-N-(1-methyl-1H-pyrazol-5-yl)pyrimidin-2-amine] | < 20

Next, values leading:

Row | IC50 [pM] | SMILES
13 | < 20 | Cn1nccc1Nc1cc(-c2cc3n4c(nnc4c2)C(Cc2ccccc2Cl)CCO3)ccn1 (single isomer, unassigned) [(S) I-60, 4-(9-(2-chlorobenzyl)-8,9-dihydro-7H-6-oxa-1,2,2a^1-triazabenzo[cd]azulen-4-yl)-N-(1-methyl-1H-pyrazol-5-yl)pyridin-2-amine]
14 | < 20 | Cn1nccc1Nc1nccc(-c2cc3n4c(nnc4c2)[C@@H](Oc2ccc(F)cc2)CCO3)n1 [(S) I-108, 4-(9-(4-fluorophenoxy)-8,9-dihydro-7H-6-oxa-1,2,2a^1-triazabenzo[cd]azulen-4-yl)-N-(1-methyl-1H-pyrazol-5-yl)pyrimidin-2-amine]
15 | < 20 | Cn1nccc1Nc1nccc(-c2cc3n4c(nnc4c2)[C@@H](Oc2ccccc2)CCO3)n1 [(S) I-90, N-(1-methyl-1H-pyrazol-5-yl)-4-(9-phenoxy-8,9-dihydro-7H-6-oxa-1,2,2a^1-triazabenzo[cd]azulen-4-yl)pyrimidin-2-amine]
16 | 390 | COc1ccc(C[C@H]2NC(=O)N(C)c3cc(-c4ccnc(Nc5ccnn5C)c4)cc4nnc2n34)cc1 [Compound I-26, (R)-9-(4-methoxybenzyl)-6-methyl-4-(2-((1-methyl-1H-pyrazol-5-yl)amino)pyridin-4-yl)-8,9-dihydro-1,2,2a^1,6,8-pentaazabenzo[cd]azulen-7(6H)-one]
17 | 598000 | CN1C(=O)C[C@@H](Cc2ccc(Cl)cn2)c2nnc3cc(-c4ccnc(Nc5ccnn5C)c4)cc1n23 [Compound I-94, (R)-9-((5-chloropyridin-2-yl)methyl)-6-methyl-4-(2-((1-methyl-1H-pyrazol-5-yl)amino)pyridin-4-yl)-8,9-dihydro-1,2,2a^1,6-tetraazabenzo[cd]azulen-7(6H)-one]
18 | 2310 | Cn1nccc1Nc1cc(-c2cc3n4c(nnc4c2)[C@H](Cn2cc(C(F)(F)F)cn2)CCO3)ccn1 [(S) I-89, N-(1-methyl-1H-pyrazol-5-yl)-4-(9-((4-(trifluoromethyl)-1H-pyrazol-1-yl)methyl)-8,9-dihydro-7H-6-oxa-1,2,2a^1-triazabenzo[cd]azulen-4-yl)pyridin-2-amine]
19 | 39 | CC(C)[C@H]1CNc2cc(-c3ccnc(Nc4ccnn4C)n3)cc3nnc1n23 [Compound I-3, S-4-(3-isopropyl-4,5-dihydro-3H-1,2,2a^1,5-tetraazaacenaphthylen-7-yl)-N-(1-methyl-1H-pyrazol-5-yl)pyrimidin-2-amine]
20 | 1150 | CC(C)C[C@@H]1c2nnc3cc(-c4ccnc(Nc5ccnn5C)n4)cc(n23)N(C)C(=O)N1C [Compound I-19, (R)-9-isobutyl-6,8-dimethyl-4-(2-((1-methyl-1H-pyrazol-5-yl)amino)pyrimidin-4-yl)-8,9-dihydro-1,2,2a^1,6,8-pentaazabenzo[cd]azulen-7(6H)-one]
21 | 149 | CCC[C@H]1CC(=O)N(C)c2cc(-c3ccnc(Nc4ccnn4C)n3)cc3nnc1n23 [(S) I-64, 6-methyl-4-(2-((1-methyl-1H-pyrazol-5-yl)amino)pyrimidin-4-yl)-9-propyl-8,9-dihydro-1,2,2a^1,6-tetraazabenzo[cd]azulen-7(6H)-one]
22 | 25900 | COc1ccc(C[C@H]2CC(=O)N(C)c3cc(-c4ccnc(Nc5ccnn5C)n4)cc4nnc2n34)c(F)c1 [(S) I-85, 9-(2-fluoro-4-methoxybenzyl)-6-methyl-4-(2-((1-methyl-1H-pyrazol-5-yl)amino)pyrimidin-4-yl)-8,9-dihydro-1,2,2a^1,6-tetraazabenzo[cd]azulen-7(6H)-one]
